“And” between values parts separate entries of the source, which are not always exact repeats. Equal values may be shown once.
Experiments:
[1] = Hamster PK and lung concentration study (non-compartmental analysis); details: for half-life: t1/2 Observed; for Tmax: Tmax Observed
Procedure: For the IV group, a single bolus IV dose of 3 mg/kg of PDN was administered to 24 hamsters (3 hamsters per time point). For the PO group, a dose of 30 mg/kg of PDN was administered via oral gavage to 21 hamsters (3 hamsters per time point). The formulation used for both IV and PO was 20% HP-β-CD in water (0.6 mg/mL PDN for IV and 3 mg/mL for PO). All dosing solutions were freshly prepared on the day of dosing. […] After collection, tissues were weighed and frozen. All blood samples were centrifuged at 4°C to obtain plasma. Plasma samples were transferred to tubes preloaded with NaF (final concentration at 5 mM in 200 µL plasma) and stored at −80°C until analysis.
For fat tissue, an additional 3-fold volume of acetonitrile was added to the water homogenate and was vortexed in a shaker for another 30 min.
A 10 μ aliquot of samples, blank controls (blank plasma or tissue homogenates), quality controls (QC), and standards were added into 200 μ acetonitrile solution with 100 ng/mL tolbutamide (internal standard, IS). All samples were then thoroughly shaken for 5 min to precipitate proteins. The samples were centrifuged at 3000 rpm and 4°C for 30 min. The supernatant was injected for UPLC-MS/MS analysis.
The mobile phase consisted of 0.1% formic acid in water (A) and 0.1% formic acid in acetonitrile (B), the flow rate was 600 μL/min. […] All analyses were carried out using a Waters Acquity I-Class UPLC interfaced with a Waters Xevo TQ-S mass spectrometer. The mass spectrometer multiple reaction monitoring (MRM) experiment was operated with an ESI source at negative mode with spray voltage of 1 kV, and temperature of 600°C. Both Q1 and Q3 were set at unit resolution. […] The correlation coefficients of the calibration curves were all greater than 0.99. […] The linear range, precision and accuracy of QCs in various tissues and plasma are shown in Supplementary Table S1 and Supplementary Table S2.
The area under the concentration vs. time curve (AUC) was calculated using the linear trapezoidal method. The terminal rate constant (λ) was obtained from the slope of at least three data points of the apparent terminal phase of the log linear concentration vs. time curve. AUC0–∞ was estimated as the sum of the AUC0–t (where t is the time of the last measurable concentration) and Ct/λ. […] Bioavailability (F) was calculated using ratios of dose-normalized AUC of PO and IV administration.

[2] = Metabolic stability in plasma; details: for Plasma k: human, in vitro
Procedure: The incubation was carried out at 37°C for 15, 30, and 60 min. The reaction in plasma or liver microsomes was quenched by adding 200 μL of cold acetonitrile (containing 100 ng/mL tolbutamide as internal standard). After a 20 min centrifugation at 3000 rpm, 4°C, the supernatant was transferred to an analysis plate and analyzed by UPLC-MS/MS as described in Section 2.4.2.
The substrate disappearance half-life (t1/2) was estimated by regression analysis of the semi-logarithmic (ln Conc vs. time) plots.

[3] = Metabolic stability in plasma; details: for Plasma k: hamster, in vitro
[4] = Metabolic stability in plasma; details: for Plasma k: mouse, in vitro
[5] = Metabolic stability and biotransformation in liver microsomes; details: for Liver Vmax: in vitro
Procedure: (§1) The incubation was carried out at 37°C for 15, 30, and 60 min. The reaction in plasma or liver microsomes was quenched by adding 200 μL of cold acetonitrile (containing 100 ng/mL tolbutamide as internal standard).
(§2) The mc was the microsome concentration used in the incubation (0.5 mg/mL). The substrate disappearance half-life (t1/2) was estimated by regression analysis of the semi-logarithmic (ln Conc vs. time) plots. […] The Vmax, in vitro,app, PDN-total and Km for PDN depletion in liver microsomes were estimated by the Michaelis-Menten model using GraphPad Prism version 8.

[6] = PBPK model (GastroPlus): simulation and model parameters incl. permeability surface product and scaled metabolic kinetics, human; details: for Liver Vmax: in vivo (scaled)
[7] = Parallel artificial membrane permeability assay (PAMPA); details: pH 7.4
Procedure: The test samples (0.05 mM test article in pH 7.4 buffer with 0.5% DMSO) were added in the donor compartment and were stirred using the Gutbox technology (Pion Inc.) to reduce the aqueous boundary layer. The test article concentrations in the donor and acceptor compartments were measured using a UV plate reader (Nano Quant, Infinite 200 PRO, Tecan Inc., Männedorf, Switzerland).

[8] = Kinetic aqueous solubility (Pion µSOL assay); details: pH 7.4
Procedure: Samples were incubated at room temperature for 6 h and vacuum-filtered using Tecan Te-Vac to remove any precipitates. The concentration of the compound in the filtrate was measured via UV absorbance (λ: 250–498 nm). […] All compounds were tested in duplicates. The kinetic solubility (µg/mL) of compounds was calculated using the µSOL Evolution software.

[9] = Metabolic stability and biotransformation in liver microsomes; details: for Liver Vmax: in vitro; remark: listed apart in the source
Procedure: as §1, §2

[10] = Incubation in liver cytosolic fractions; format: in vitro ADME; details: mouse, hamster, human, read-out: in vitro metabolic half-life (t1/2)
Procedure: The in vitro metabolic stability of PDN was determined in the plasma and liver fractions of three species. […] Based on the formation of Nc in plasma, about 51%, 16%, and 10% of depleted PDN were converted to Nc in mouse, hamster, and human plasma, respectively. PDN was also metabolized in the liver microsomes. However, due to the fast metabolism of formed Nc in liver microsomes (sequential metabolism), only a trace amount of Nc was detected after incubation of PDN. Therefore, the metabolism kinetics of PDN was investigated to obtain the Vmax, in vitro, app and Km values of PDN depletion (Table 3).

[11] = male, LVG golden Syrian, hamster, in vivo, iv, 3 mg/kg
[12] = male, LVG golden Syrian, hamster, in vivo, po, 30 mg/kg
[13] = male, LVG golden Syrian, hamster, in vivo, po, 30 mg/kg, hamsters, PO 30 mg/kg PDN, lung
[14] = male, LVG golden Syrian, hamster, in vivo, po, 30 mg/kg, hamsters, PO 30 mg/kg PDN, plasma

## O=C(Nc1ccc([N+](=O)[O-])cc1Cl)c1cc(Cl)ccc1OC(=O)N1CCNCC1 [PDN]
[1]; hamsters, IV 3 mg/kg PDN, lung
  AUC0-∞ Observed: 45600 (4266) h*ng/g
[1]; hamsters, PO 30 mg/kg PDN, lung
  AUC0-∞ Observed: 462000 (28500) h*ng/g
[1]; hamsters, PO 30 mg/kg PDN, plasma, 30 mg/kg
  t1/2 Observed: 1.8 (0.13) h
[1]; [11]
  AUC(0-inf): 631 ng·h/mL
  Kp: 72
  Vd: 0.74 L
  clearance: 8 mL/min
[1]; male, LVG golden Syrian, hamster, in vivo, iv, 3 mg/kg, hamsters, IV 3 mg/kg PDN, lung
  half-life: 66 min
[1]; male, LVG golden Syrian, hamster, in vivo, iv, 3 mg/kg, hamsters, IV 3 mg/kg PDN, plasma
  half-life: 66 min
[1]; [12]
  AUC(0-inf): 4320 ng·h/mL
  CL/F: 11.5 mL/min
  Cmax: 98000 ng/g and 1060 ng/mL
  Kp: 107
  Vd/F: 1.78 L
  bioavailability: ~64%
[1]; [13]
  Tmax: 60 min
  half-life: 138 min
[1]; [14]
  Tmax: 30 min
  half-life: ~108 min
[2]; conversion to Nc
  Plasma k: 0.00026 s⁻¹
[2]; conversion to Others
  Plasma k: 0.0022 s⁻¹
[2]; human plasma, 37°C
  kin vitro,app, PDN-total (total depletion of PDN): 0.0025 ± 0.0013 min⁻¹
[3]; conversion to Nc
  Plasma k: 0.0045 s⁻¹
[3]; conversion to Others
  Plasma k: 0.0146 s⁻¹
[3]; hamster plasma, 37°C
  kin vitro,app, PDN-total (total depletion of PDN): 0.0191 ± 0.0044 min⁻¹
[4]; conversion to Nc
  Plasma k: 0.0058 s⁻¹
[4]; conversion to Others
  Plasma k: 0.0062 s⁻¹
[4]; mouse plasma, 37°C
  kin vitro,app, PDN-total (total depletion of PDN): 0.0120 ± 0.0015 min⁻¹
[5]; conversion to Nc, mouse
  Liver Vmax: 0.00095 mg/s/mg microsomes
[5]; conversion to Nc, mouse, in vitro (in vitro liver parameters)
  Gut Vmax: 0.00095 mg/s/mg microsomes
[5]; conversion to Others, mouse
  Liver Vmax: 0.1484 mg/s/mg microsomes
[5]; mouse liver microsomes
  Vmax in vitro,app, PDN-total: 1.327 ± 0.106 nmol/min/mg
[5]; mouse, pH 7.4
  Km: 20.2 ± 3.31 µM
[6]; conversion to Nc
  Liver Vmax: 0.0004 mg/s/mg microsomes
[6]; conversion to Nc, in vivo, predicted from in vitro liver parameters
  Gut Vmax: 0.00001 mg/s/mg microsomes
[6]; conversion to Others
  Liver Vmax: 0.0164 mg/s/mg microsomes
[7]
  Papp at 0.05 mM: > 100 ×10⁻⁶ cm/s
[8]
  increase in solubility compared with Nc: 40 fold
  solubility kinetic at 6 h: > 43.5 µg/mL
[9]; conversion to Nc, human
  Liver Vmax: 0.0002 mg/s/mg microsomes
[9]; conversion to Nc, human, in vitro (in vitro liver parameters)
  Gut Vmax: 0.00024 mg/s/mg microsomes
[9]; conversion to Others, human
  Liver Vmax: 0.0106 mg/s/mg microsomes
[9]; human liver microsomes
  Vmax in vitro,app, PDN-total: 0.365 ± 0.187 nmol/min/mg
[9]; human, pH 7.4
  Km: 33.8 ± 29.1 µM
[10]
  half-life: > 120 min

Source: article PMC10126473 (Frontiers in Pharmacology, 2023)
